Laboratory results: ChEMBL document CHEMBL4819142, “Synthesis of propargylamine mycophenolate analogues and their selective cytotoxic activity towards neuroblastoma SH-SY5Y cell line” (Bioorg Med Chem Lett, 2021)
pIC50: −log10 of the molar value.

Experiments:
[1] = Cytotoxicity against human KKUM213 cells assessed as growth inhibition measured by SRB assay; format: functional, cell-based; settings: KKU-M213
HT-29 = assay: Cytotoxicity against human HT-29 cells assessed as growth inhibition measured by SRB assay; format: functional, cell-based
SH-SY5Y = assay: Cytotoxicity against human SH-SY5Y cells assessed as growth inhibition measured by SRB assay; format: functional, cell-based
A549 = assay: Cytotoxicity against human A549 cells assessed as growth inhibition measured by SRB assay; format: functional, cell-based
[2] = Cytotoxicity against human […] cells assessed as growth inhibition measured by SRB assay; format: cell-based
FaDu = assay: Cytotoxicity against human FaDu cells assessed as growth inhibition measured by SRB assay; format: functional, cell-based
MDA-MB-231 = assay: Cytotoxicity against human MDA-MB-231 cells assessed as growth inhibition measured by SRB assay; format: functional, cell-based

| Compound | pIC50 [1] | pIC50 (HT-29) | pIC50 (SH-SY5Y) | pIC50 (A549) | pIC50 [2] | pIC50 (FaDu) | pIC50 (MDA-MB-231) |
| --- | --- | --- | --- | --- | --- | --- | --- |
| COC(=O)CC/C(C)=C/Cc1c(OC)c(C)c2c(c1OCC#CCN1CCC(C(=O)O)CC1)C(=O)OC2 | < 4.30 | < 4.30 | 4.33 | < 4.30 | < 4.30 | < 4.30 | < 4.30 |
| COC(=O)CC/C(C)=C/Cc1c(OC)c(C)c2c(c1OCC#CCN1CCN(c3ccccc3)CC1)C(=O)OC2 | < 4.30 | < 4.30 | 5.04 | 4.66 | < 4.30 | < 4.30 | < 4.30 |
| COC(=O)CC/C(C)=C/Cc1c(OC)c(C)c2c(c1OCC#CCN1CCN(C(c3ccccc3)c3ccc(Cl)cc3)CC1)C(=O)OC2 (stereo not given) | < 4.30 | < 4.30 | 5.00 | 4.54 | < 4.30 | < 4.30 | < 4.30 |
| C#CCOc1c(C/C=C(\C)CCC(=O)OC)c(OC)c(C)c2c1C(=O)OC2 | 4.45 | 4.54 | 5.51 | 4.50 | 4.60 | 4.82 | 4.31 |
| CCCCNc1ccc(CC#CCOc2c(C/C=C(\C)CCC(=O)OC)c(OC)c(C)c3c2C(=O)OC3)cc1 | 4.64 | 4.44 | 5.22 | 5.16 | 4.74 | 4.67 | 4.70 |
| C=CCN(CC#CCOc1c(C/C=C(\C)CCC(=O)OC)c(OC)c(C)c2c1C(=O)OC2)CC=C | < 4.30 | < 4.30 | 4.44 | 4.36 | 4.44 | < 4.30 | < 4.30 |
| COC(=O)CC/C(C)=C/Cc1c(OC)c(C)c2c(c1OCC#CCN1CCN(Cc3ccc(Cl)cc3)CC1)C(=O)OC2 | < 4.30 | < 4.30 | 4.51 | < 4.30 | < 4.30 | < 4.30 | < 4.30 |
| COC(=O)CC/C(C)=C/Cc1c(OC)c(C)c2c(c1OCC#CCN1CCN(c3ccc(C#N)cc3)CC1)C(=O)OC2 | < 4.30 | < 4.30 | 4.42 | < 4.30 | < 4.30 | < 4.30 | < 4.30 |
| COC(=O)CC/C(C)=C/Cc1c(OC)c(C)c2c(c1OCC#CCN1CCN(c3ccccc3F)CC1)C(=O)OC2 | < 4.30 | < 4.30 | 4.45 | 4.34 | < 4.30 | < 4.30 | < 4.30 |
| COC(=O)CC/C(C)=C/Cc1c(OC)c(C)c2c(c1OCC#CCN1CCN(c3ccc(C)cc3)CC1)C(=O)OC2 | < 4.30 | < 4.30 | 4.42 | < 4.30 | < 4.30 | < 4.30 | < 4.30 |
| COC(=O)CC/C(C)=C/Cc1c(OC)c(C)c2c(c1OCC#CCN1CCN(C(=O)C3COc4ccccc4O3)CC1)C(=O)OC2 (stereo not given) | < 4.30 | < 4.30 | < 4.30 | < 4.30 | < 4.30 | < 4.30 | < 4.30 |
| COC(=O)CC/C(C)=C/Cc1c(OC)c(C)c2c(c1OCC#CCN1CCN(Cc3ccc4c(c3)OCO4)CC1)C(=O)OC2 | < 4.30 | < 4.30 | 4.46 | 4.34 | < 4.30 | < 4.30 | < 4.30 |
| CCCCN(CC#CCOc1c(C/C=C(\C)CCC(=O)OC)c(OC)c(C)c2c1C(=O)OC2)CCCC | 4.42 | < 4.30 | 4.67 | 4.51 | 4.44 | 4.51 | 4.40 |
| Cc1c2ccncc2c(C)c2c1[nH]c1ccccc12 [ELLIPTECINE] | 5.71 | 5.71 | 5.67 | 5.94 | 5.72 | 5.73 | 5.69 |
| COC(=O)CC/C(C)=C/Cc1c(OC)c(C)c2c(c1OCC#CCN1CCN(c3ncccn3)CC1)C(=O)OC2 | < 4.30 | < 4.30 | < 4.30 | < 4.30 | < 4.30 | < 4.30 | < 4.30 |
| COC(=O)CC/C(C)=C/Cc1c(OC)c(C)c2c(c1OCC#CCN1CCCc3ccccc31)C(=O)OC2 | < 4.30 | < 4.30 | 5.02 | 4.74 | < 4.30 | < 4.30 | < 4.30 |
| COC(=O)CC/C(C)=C/Cc1c(OC)c(C)c2c(c1OCC#CCN1CCN(C(c3ccccc3)c3ccccc3)CC1)C(=O)OC2 | < 4.30 | < 4.30 | 4.62 | 4.49 | < 4.30 | < 4.30 | < 4.30 |
| COC(=O)CC/C(C)=C/Cc1c(OC)c(C)c2c(c1OCC#CCN(CC#CCOc1c(C/C=C(\C)CCC(=O)OC)c(OC)c(C)c3c1C(=O)OC3)CCC(C)C)C(=O)OC2 | 4.32 | < 4.30 | 4.69 | 4.56 | 4.32 | 4.33 | 4.31 |
| COC(=O)CC/C(C)=C/Cc1c(OC)c(C)c2c(c1OCC#CCN1CCCC1)C(=O)OC2 | < 4.30 | 4.33 | 4.51 | 4.44 | < 4.30 | < 4.30 | < 4.30 |
| COC(=O)CC/C(C)=C/Cc1c(OC)c(C)c2c(c1OCC#CCN1CCN(C(C)=O)CC1)C(=O)OC2 | < 4.30 | < 4.30 | < 4.30 | < 4.30 | < 4.30 | < 4.30 | < 4.30 |
| COC(=O)CC/C(C)=C/Cc1c(O)c2c(c(C)c1OC)COC2=O | 5.13 | 4.62 | 6.59 | 6.09 | 5.24 | 5.21 | 5.02 |
| COC(=O)CC/C(C)=C/Cc1c(OC)c(C)c2c(c1OCC#CCN1CCC(c3ccccc3)c3ccccc31)C(=O)OC2 (stereo not given) | 4.59 | 4.40 | 5.19 | 5.11 | 4.63 | 4.61 | 4.54 |
| COC(=O)CC/C(C)=C/Cc1c(OC)c(C)c2c(c1OCC#CCN1CCN(C(c3ccc(F)cc3)c3ccc(F)cc3)CC1)C(=O)OC2 | < 4.30 | < 4.30 | 4.59 | 4.47 | < 4.30 | < 4.30 | < 4.30 |
| COC(=O)CC/C(C)=C/Cc1c(OC)c(C)c2c(c1OCC#CCN1CCOCC1)C(=O)OC2 | < 4.30 | < 4.30 | < 4.30 | < 4.30 | < 4.30 | < 4.30 | < 4.30 |
| COC(=O)CC/C(C)=C/Cc1c(OC)c(C)c2c(c1OCC#CCN1CCN(CCO)CC1)C(=O)OC2 | < 4.30 | < 4.30 | 4.45 | < 4.30 | < 4.30 | < 4.30 | < 4.30 |
| COC(=O)CC/C(C)=C/Cc1c(OC)c(C)c2c(c1OCC#CCN1CCN(c3ccccc3OC)CC1)C(=O)OC2 | < 4.30 | < 4.30 | 4.36 | < 4.30 | < 4.30 | < 4.30 | < 4.30 |
| COC(=O)CC/C(C)=C/Cc1c(OC)c(C)c2c(c1OCC#CCN1CCC(C(=O)OC)CC1)C(=O)OC2 | < 4.30 | < 4.30 | 4.39 | 4.39 | < 4.30 | < 4.30 | < 4.30 |
| COc1c(C)c2c(c(O)c1C/C=C(\C)CCC(=O)O)C(=O)OC2 [MYCOPHENOLIC ACID] | 5.15 | 5.19 | 6.25 | 5.92 | 5.14 | 5.17 | 5.11 |
| COC(=O)CC/C(C)=C/Cc1c(OC)c(C)c2c(c1OCC#CCN1CCC(Cc3ccccc3)CC1)C(=O)OC2 | < 4.30 | < 4.30 | 4.61 | 4.39 | < 4.30 | < 4.30 | < 4.30 |
| COC(=O)CC/C(C)=C/Cc1c(OC)c(C)c2c(c1OCC#CCN1CCN(c3ccc(O)cc3)CC1)C(=O)OC2 | < 4.30 | < 4.30 | 4.34 | < 4.30 | < 4.30 | < 4.30 | < 4.30 |
